Measured values as given in US9125913B2, “Bcl-2-selective apoptosis-inducing agents for the treatment of cancer and immune diseases” (AbbVie Inc., priority 2008, dated 2015).

system: GST-Bcl-2; test: TR-FRET binding assay, Bcl-2; conditions: TR-FRET Ki values
Protocol: Tb-anti-GST antibody was purchased from Invitrogen (Catalog No. PV4216).
Representative compounds were serially diluted in dimethyl sulfoxide (DMSO) starting at 50 μM (2× starting concentration; 10% DMSO) and 10 μL were transferred into a 384-well plate.
The samples were then mixed on a shaker for 1 minute and incubated for an additional 3 hours at room temperature. For each assay, the probe/antibody and protein/probe/antibody were included on each assay plate as negative and positive controls, respectively. Fluorescence was measured on the Envision (Perkin Elmer) using a 340/35 nm excitation filter and 520/525 (F-Bak peptide) and 495/510 nm (Tb-labeled anti-Histidine antibody) emission filters.
The inhibition constant (Ki) is the dissociation constant of an enzyme-inhibitor complex or a protein/small molecule complex, wherein the small molecule is inhibiting binding of one protein to another protein or peptide. […] Inhibition constants were determined using Wang's equation (Wang Z-X., An Exact Mathematical Expression For Describing Competitive Binding Of Two Different Ligands To A Protein Molecule. FEBS Lett. 1995, 360:111-4).

Q: “4-(4-{[2-(4-chlorophenyl)-4,4-dimethylcyclohex-1-en-1-yl]methyl}piperazin-1-yl)-N-{[4-({[Cis-4-hydroxy-1-adamantyl]methyl}amino)-3-nitrophenyl]sulfonyl}-2-(1H-indol-5-yloxy)benzamide [EXAMPLE 322]” was tested. Which “Binding selectivity ratio (Bcl-XL Ki/Bcl-2 Ki)” value (“Binding selectivity ratio” below) did it give?
A: >3591.4

Q: With `CC1(C)CC(c2ccc(Cl)cc2)=C(CN2CCN(c3ccc(C(=O)NS(=O)(=O)c4ccc(NCC5CCOCC5)c([N+](=O)[O-])c4)c(Oc4ccc5[nH]ccc5c4)c3)CC2)CO1` [EXAMPLE 182, 4-(4-{[4-(4-chlorophenyl)-6,6-dimethyl-5,6-dihydro-2H-pyran-3-yl]methyl}piperazin-1-yl)-2-(1H-indol-5-yloxy)-N-({3-nitro-4-[(tetrahydro-2H-pyran-4-ylmethyl)amino]phenyl}sulfonyl)benzamide] as the compound, how does the “Binding selectivity ratio” value read?
A: >7595.8

Q: Which “Binding selectivity ratio” value does the source give for `CN1CCC(O)(CNc2ccc(S(=O)(=O)NC(=O)c3ccc(N4CCN(CC5=C(c6ccc(Cl)cc6)CC(C)(C)CC5)CC4)cc3Oc3ccc4[nH]ccc4c3)cc2[N+](=O)[O-])CC1` [EXAMPLE 183, 4-(4-{[2-(4-chlorophenyl)-4,4-dimethylcyclohex-1-en-1-yl]methyl}piperazin-1-yl)-N-[(4-{[(4-hydroxy-1-methylpiperidin-4-yl)methyl]amino}-3-nitrophenyl)sulfonyl]-2-(1H-indol-5-yloxy)benzamide] here?
A: 240.5

Q: `CN1CCC(Nc2ccc(S(=O)(=O)NC(=O)c3ccc(N4CCN(CC5=C(c6ccc(Cl)cc6)CC(C)(C)CC5)CC4)c(F)c3Oc3ccc4[nH]ccc4c3)cc2[N+](=O)[O-])CC1` [EXAMPLE 184, 4-(4-{[2-(4-chlorophenyl)-4,4-dimethylcyclohex-1-en-1-yl]methyl}piperazin-1-yl)-3-fluoro-2-(1H-indol-5-yloxy)-N-({4-[(1-methylpiperidin-4-yl)amino]-3-nitrophenyl}sulfonyl)benzamide] was tested. Which “Binding selectivity ratio” value did it give?
A: >2345.3

Q: How did the “Binding selectivity ratio” value turn out when `CC1(C)CCC(CN2CCN(c3ccc(C(=O)NS(=O)(=O)c4ccc(NC5CCN(C6CCOCC6)CC5)c([N+](=O)[O-])c4)c(Oc4ccc5[nH]ccc5c4)c3F)CC2)=C(c2ccc(Cl)cc2)C1` [EXAMPLE 185, 4-(4-{[2-(4-chlorophenyl)-4,4-dimethylcyclohex-1-en-1-yl]methyl}piperazin-1-yl)-3-fluoro-2-(1H-indol-5-yloxy)-N-({3-nitro-4-[(1-tetrahydro-2H-pyran-4-ylpiperidin-4-yl)amino]phenyl}sulfonyl)benzamide] was run?
A: 361.5

Q: Which “Binding selectivity ratio” value does the source give for `CN1CCC(O)(CNc2ccc(S(=O)(=O)NC(=O)c3ccc(N4CCN(CC5=C(c6ccc(Cl)cc6)CC(C)(C)CC5)CC4)cc3Oc3cccc4[nH]ccc34)cc2[N+](=O)[O-])CC1` [EXAMPLE 186, 4-(4-{[2-(4-chlorophenyl)-4,4-dimethylcyclohex-1-en-1-yl]methyl}piperazin-1-yl)-N-[(4-{[(4-hydroxy-1-methylpiperidin-4-yl)methyl]amino}-3-nitrophenyl)sulfonyl]-2-(1H-indol-4-yloxy)benzamide] here?
A: 1069.2

Q: Which “Binding selectivity ratio” value does the source give for `CC1(C)CCC(CN2CCN(c3ccc(C(=O)NS(=O)(=O)c4ccc(N[C@@H]5CCN(Cc6ccccc6)C[C@@H]5O)c([N+](=O)[O-])c4)c(Oc4ccc5[nH]ccc5c4)c3)CC2)=C(c2ccc(Cl)cc2)C1` [EXAMPLE 187, N-[(4-{[(3S,4R)-1-benzyl-3-hydroxypiperidin-4-yl]amino}-3-nitrophenyl)sulfonyl]-4-(4-{[2-(4-chlorophenyl)-4,4-dimethylcyclohex-1-en-1-yl]methyl}piperazin-1-yl)-2-(1H-indol-5-yloxy)benzamide] here?
A: >2003.9

Q: How did the “Binding selectivity ratio” value turn out when `CC1(C)CCC(CN2CCN(c3ccc(C(=O)NS(=O)(=O)c4ccc(NCC5(N)CCOCC5)c([N+](=O)[O-])c4)c(Oc4ccc5[nH]ccc5c4)c3)CC2)=C(c2ccc(Cl)cc2)C1` [EXAMPLE 188, N-[(4-{[(4-aminotetrahydro-2H-pyran-4-yl)methyl]amino}-3-nitrophenyl)sulfonyl]-4-(4-{[2-(4-chlorophenyl)-4,4-dimethylcyclohex-1-en-1-yl]methyl}piperazin-1-yl)-2-(1H-indol-5-yloxy)benzamide] was run?
A: 1135.4

Q: Which “Binding selectivity ratio” value does the source give for `COCCN1CCC(Nc2ccc(S(=O)(=O)NC(=O)c3ccc(N4CCN(CC5=C(c6ccc(Cl)cc6)CC(C)(C)CC5)CC4)cc3Oc3ccc4[nH]ccc4c3)cc2[N+](=O)[O-])CC1` [EXAMPLE 189, 4-(4-{[2-(4-chlorophenyl)-4,4-dimethylcyclohex-1-en-1-yl]methyl}piperazin-1-yl)-2-(1H-indol-5-yloxy)-N-[(4-{[1-(2-methoxyethyl)piperidin-4-yl]amino}-3-nitrophenyl)sulfonyl]benzamide] here?
A: 358.6

Q: For `CN1CCN(Nc2ccc(S(=O)(=O)NC(=O)c3ccc(N4CCN(CC5=C(c6ccc(Cl)cc6)CC(C)(C)CC5)CC4)cc3Oc3cccc4[nH]ccc34)cc2[N+](=O)[O-])CC1` [EXAMPLE 190, 4-(4-{[2-(4-chlorophenyl)-4,4-dimethylcyclohex-1-en-1-yl]methyl}piperazin-1-yl)-2-(1H-indol-4-yloxy)-N-({4-[(4-methylpiperazin-1-yl)amino]-3-nitrophenyl}sulfonyl)benzamide], which “Binding selectivity ratio” value is on record?
A: 189.6

Q: With `CC1(C)CCC(CN2CCN(c3ccc(C(=O)NS(=O)(=O)c4ccc(NC5CCN(CCO)CC5)c([N+](=O)[O-])c4)c(Oc4cccc5[nH]ccc45)c3)CC2)=C(c2ccc(Cl)cc2)C1` [EXAMPLE 191, 4-(4-{[2-(4-chlorophenyl)-4,4-dimethylcyclohex-1-en-1-yl]methyl}piperazin-1-yl)-N-[(4-{[1-(2-hydroxyethyl)piperidin-4-yl]amino}-3-nitrophenyl)sulfonyl]-2-(1H-indol-4-yloxy)benzamide] as the compound, how does the “Binding selectivity ratio” value read?
A: 125.2

Q: For `COCCN1CCC(Nc2ccc(S(=O)(=O)NC(=O)c3ccc(N4CCN(CC5=C(c6ccc(Cl)cc6)CC(C)(C)CC5)CC4)cc3Oc3cccc4[nH]ccc34)cc2[N+](=O)[O-])CC1` [EXAMPLE 194, 4-(4-{[2-(4-chlorophenyl)-4,4-dimethylcyclohex-1-en-1-yl]methyl}piperazin-1-yl)-2-(1H-indol-4-yloxy)-N-[(4-{[1-(2-methoxyethyl)piperidin-4-yl]amino}-3-nitrophenyl)sulfonyl]benzamide], which “Binding selectivity ratio” value is on record?
A: 212.4

Q: For `CC1(C)CCC(CN2CCN(c3ccc(C(=O)NS(=O)(=O)c4ccc(NC5CCN(CCCO)CC5)c([N+](=O)[O-])c4)c(Oc4cccc5[nH]ccc45)c3)CC2)=C(c2ccc(Cl)cc2)C1` [EXAMPLE 195, 4-(4-{[2-(4-chlorophenyl)-4,4-dimethylcyclohex-1-en-1-yl]methyl}piperazin-1-yl)-N-[(4-{[1-(3-hydroxypropyl)piperidin-4-yl]amino}-3-nitrophenyl)sulfonyl]-2-(1H-indol-4-yloxy)benzamide], which “Binding selectivity ratio” value is on record?
A: 170.2

Q: How did the “Binding selectivity ratio” value turn out when `CN(C)CCCc1cccc(-c2ccc(Cl)cc2)c1CN1CCN(c2ccc(C(=O)NS(=O)(=O)c3ccc(NCC4CCOCC4)c([N+](=O)[O-])c3)c(Oc3cccc4[nH]ccc34)c2)CC1` [EXAMPLE 196, 4-[4-({4′-chloro-3-[3-(dimethylamino)propyl]-1,1′-biphenyl-2-yl}methyl)piperazin-1-yl]-2-(1H-indol-4-yloxy)-N-({3-nitro-4-[(tetrahydro-2H-pyran-4-ylmethyl)amino]phenyl}sulfonyl)benzamide] was run?
A: >20552.4

Q: With `CC1(C)CCC(CN2CCN(c3ccc(C(=O)NS(=O)(=O)c4ccc(NC5CCN(CCCO)CC5)c([N+](=O)[O-])c4)c(Oc4ccc5[nH]ccc5c4)c3)CC2)=C(c2ccc(Cl)cc2)C1` [EXAMPLE 197, 4-(4-{[2-(4-chlorophenyl)-4,4-dimethylcyclohex-1-en-1-yl]methyl}piperazin-1-yl)-N-[(4-{[1-(3-hydroxypropyl)piperidin-4-yl]amino}-3-nitrophenyl)sulfonyl]-2-(1H-indol-5-yloxy)benzamide] as the compound, how does the “Binding selectivity ratio” value read?
A: 193

Q: With `O=C(NS(=O)(=O)c1ccc(NCC2CCOCC2)c([N+](=O)[O-])c1)c1ccc(N2CCN(Cc3cc(N4CCOCC4)ccc3-c3ccc(Cl)cc3)CC2)cc1Oc1cccc2[nH]ccc12` [EXAMPLE 198, 4-{4-[(4′-chloro-4-morpholin-4-yl-1,1′-biphenyl-2-yl)methyl]piperazin-1-yl}-2-(1H-indol-4-yloxy)-N-({3-nitro-4-[(tetrahydro-2H-pyran-4-ylmethyl)amino]phenyl}sulfonyl)benzamide] as the compound, how does the “Binding selectivity ratio” value read?
A: >166.4

Q: Which “Binding selectivity ratio” value does the source give for `CN(C)CCOc1cccc(-c2ccc(Cl)cc2)c1CN1CCN(c2ccc(C(=O)NS(=O)(=O)c3ccc(NC4CCN(C5CCOCC5)CC4)c([N+](=O)[O-])c3)c(Oc3cccc4[nH]ccc34)c2)CC1` [EXAMPLE 199, 4-[4-({4′-chloro-3-[2-(dimethylamino)ethoxy]-1,1′-biphenyl-2-yl}methyl)piperazin-1-yl]-2-(1H-indol-4-yloxy)-N-({3-nitro-4-[(1-tetrahydro-2H-pyran-4-ylpiperidin-4-yl)amino]phenyl}sulfonyl)benzamide] here?
A: 369.8

Q: How did the “Binding selectivity ratio” value turn out when `CCN(CC)C1CCC(Nc2ccc(S(=O)(=O)NC(=O)c3ccc(N4CCN(CC5=C(c6ccc(Cl)cc6)CC(C)(C)CC5)CC4)cc3Oc3ccc4[nH]ccc4c3)cc2[N+](=O)[O-])CC1` (stereo not drawn) [EXAMPLE 201, 4-(4-{[2-(4-chlorophenyl)-4,4-dimethylcyclohex-1-en-1-yl]methyl}piperazin-1-yl)-N-[(4-{[4-(diethylamino)cyclohexyl]amino}-3-nitrophenyl)sulfonyl]-2-(1H-indol-5-yloxy)benzamide] was run?
A: 196.6
